# Values of other authors, collected in patent US20180008711A1, “TRIPLE ANTIBIOTIC CATIONIC OINTMENT” (priority 2015, published 2018).
# Experiments:
# [1] = tested on: bacteria; details: very low concentrations
# [2] = tested on: fungi
# [3] = tested on: Pseudomonas aeruginosa
# [4] = tested on: Staphylococcus aureus (also the methicillin-resistant type, MRSA)
# [5] = tested on: Escherichia coli
# [6] = tested on: Candida albicans (yeast)
# [7] = tested on: Aspergillus brasiliensis (mold)
# [8] = tested on: vancomycin-resistant enterococci
# [9] = tested on: Klebsiella pneumoniae (carbapenem-resistant enterobacteriaceae)
Substance,bactericidal concentration [1],fungicidal [2],effective against Pseudomonas aeruginosa [3],effective against Staphylococcus aureus [4],effective against Escherichia coli [5],effective against Candida albicans [6],effective against Aspergillus brasiliensis [7],effective against vancomycin-resistant enterococci [8],effective against Klebsiella pneumoniae [9]
Polyaminopropylbiguanide [PAPB],10 mg/1,fungicidal,–,–,–,–,–,–,–
polyhexamethylenebiguanide [PHMB],–,–,effective,effective,effective,effective,effective,effective,effective
